Test results published in ChEMBL document CHEMBL4715742, “Design, synthesis and cytotoxic activities of novel 2,5-diketopiperazine derivatives” (Eur J Med Chem, 2016).

What was measured:
Format in all cases: functional, cell-based
U-937 = assay: Cytotoxicity against human U-937 cells assessed as reduction in cell viability measured after 72 hrs by CCK8 assay
K562 = assay: Cytotoxicity against human K562 cells assessed as reduction in cell viability measured after 72 hrs by CCK8 assay
HL-60 = assay: Cytotoxicity against human HL-60 cells assessed as reduction in cell viability measured after 72 hrs by CCK8 assay
A549 = assay: Cytotoxicity against human A549 cells assessed as reduction in cell viability measured after 72 hrs by CCK8 assay
MCF7 = assay: Cytotoxicity against human MCF7 cells assessed as reduction in cell viability measured after 72 hrs by CCK8 assay
HeLa = assay: Cytotoxicity against human HeLa cells assessed as reduction in cell viability measured after 72 hrs by CCK8 assay
DU-145 = assay: Cytotoxicity against human DU-145 cells assessed as reduction in cell viability measured after 72 hrs by CCK8 assay
HT-29 = assay: Cytotoxicity against human HT-29 cells assessed as reduction in cell viability measured after 72 hrs by CCK8 assay
[1] = Homo sapiens, U-937, 72 h, read-out: IC50
[2] = Homo sapiens, K562, 72 h, read-out: IC50
[3] = Homo sapiens, HL-60, 72 h, read-out: IC50
[4] = Homo sapiens, A549, 72 h, read-out: IC50
[5] = Homo sapiens, MCF7, 72 h, read-out: IC50
[6] = Homo sapiens, HeLa, 72 h, read-out: IC50
[7] = Homo sapiens, DU-145, 72 h, read-out: IC50
[8] = Homo sapiens, HT-29, 72 h, read-out: IC50

| SMILES | IC50 (U-937; [1]) [µM] | IC50 (K562; [2]) [µM] | IC50 (HL-60; [3]) [µM] | IC50 (A549; [4]) [µM] | IC50 (MCF7; [5]) [µM] | IC50 (HeLa; [6]) [µM] | IC50 (DU-145; [7]) [µM] | IC50 (HT-29; [8]) [µM] | IC50 (HL-60; hl-60) | IC50 (U-937; u-937) | IC50 (K562; k562) | IC50 (A549; a549) | IC50 (MCF7; mcf7) | IC50 (HeLa; hela) | IC50 (DU-145; du-145) | IC50 (HT-29; ht-29) |
| --- | --- | --- | --- | --- | --- | --- | --- | --- | --- | --- | --- | --- | --- | --- | --- | --- |
| C=CCn1c(=O)/c(=C/CCCCC)[nH]c(=O)/c1=C/c1ccccc1OC | 1.9 | 2.6 | 13.4 | 8.7 | 6.9 | 5.7 | 10.7 | 7.4 | – | – | – | – | – | – | – | – |
| C=CCn1c(=O)/c(=C/CCCCCC)[nH]c(=O)/c1=C/c1ccccc1OC | 2.6 | 3.6 | 10.6 | 13.9 | 9.3 | 7 | 11.2 | 9.8 | – | – | – | – | – | – | – | – |
| C=CCn1c(=O)/c(=C/CCCCC)[nH]c(=O)/c1=C/c1ccc(OC)cc1 | 0.5 | 0.7 | – | 1.9 | 2.3 | 1.1 | 2.1 | 1.7 | Not Active | – | – | – | – | – | – | – |
| C=CCn1c(=O)/c(=C/CC)[nH]c(=O)/c1=C/c1ccccc1OC | – | – | – | – | – | – | – | – | Not Active | Not Active | Not Active | Not Active | Not Active | Not Active | Not Active | Not Active |
| C=CCn1c(=O)/c(=C/CCC)[nH]c(=O)/c1=C/c1cccc(OC)c1 | – | – | – | – | – | – | – | – | Not Active | Not Active | Not Active | Not Active | Not Active | Not Active | Not Active | Not Active |
| Cn1c(=O)/c(=C/c2ccccc2)[nH]c(=O)/c1=C/c1ccccc1 | 1.4 | 2.9 | – | 7.8 | 5.1 | 4.9 | 9.4 | 6.5 | Not Active | – | – | – | – | – | – | – |
| C=CCn1c(=O)/c(=C/CCCCCCC)[nH]c(=O)/c1=C/c1ccccc1OC | – | – | – | – | – | – | – | – | Not Active | Not Active | Not Active | Not Active | Not Active | Not Active | Not Active | Not Active |
| C=CCn1c(=O)/c(=C/CCCCCCCCC)[nH]c(=O)/c1=C/c1cccc(OC)c1 | – | – | – | – | – | – | – | – | Not Active | Not Active | Not Active | Not Active | Not Active | Not Active | Not Active | Not Active |
| C=CCn1c(=O)/c(=C/CCCCCCCC)[nH]c(=O)/c1=C/c1ccccc1OC | – | – | – | – | – | – | – | – | Not Active | Not Active | Not Active | Not Active | Not Active | Not Active | Not Active | Not Active |
| C=CCn1c(=O)/c(=C/CCCCCCCC)[nH]c(=O)/c1=C/c1ccc(OC)cc1 | 3.7 | 5.6 | 26.5 | 15.8 | 10.1 | 8.1 | 7.9 | 10.8 | – | – | – | – | – | – | – | – |
| C=CCn1c(=O)/c(=C/CCCCCC)[nH]c(=O)/c1=C/c1ccc(OC)cc1 | 0.6 | 0.9 | 3.4 | 2 | 2.4 | 1.6 | 2.2 | 1.6 | – | – | – | – | – | – | – | – |
| C=CCn1c(=O)/c(=C/CCCCCCC)[nH]c(=O)/c1=C/c1ccc(OC)cc1 | 1.1 | 1.5 | 28.2 | 2.9 | 2.8 | 2.3 | 2.9 | 2.2 | – | – | – | – | – | – | – | – |
| C=CCn1c(=O)/c(=C/CCCCCCCCCCC)[nH]c(=O)/c1=C/c1ccc(OC)cc1 | – | – | – | – | – | – | – | – | Not Active | Not Active | Not Active | Not Active | Not Active | Not Active | Not Active | Not Active |
